From patent publication US20240208898A1, “ENAMINE N-OXIDES: SYNTHESIS AND APPLICATION TO HYPOXIA-RESPONSIVE PRODRUGS AND IMAGING AGENTS” (DANA-FARBER CANCER INSTITUTE, INC., priority 2021, published 2024)

Test system: BxPC-3 pancreatic cancer cell line
Experiment: In-gel fluorescence imaging of cells labeled by enamine N-oxides
Type: cell-based
Experimental: Cells were seeded at a density of 200,000 cells per well in media [2 mL, RPMI (A431, H460, HeLa, Bx-PC3, MDA-MB-231) or DMEM (U251) supplemented with 5% heat-inactivated human serum (Sigma), penicillin (100 units/mL), and streptomycin (0.1 mg/mL)] in 6-well plates. Cells were incubated at 37° C. under ambient atmosphere with 5% CO2. After 24 h, the media was aspirated and replaced with fresh media [1 mL, RPMI (A431, H460, HeLa, Bx-PC3, MDA-MB-231) or DMEM (U251) supplemented with 5% heat-inactivated human serum, penicillin (100 units/mL), and streptomycin (0.1 mg/mL)] containing enamine N-oxide probe (200 mM in ethanol; 10 μM final concentration). Plates were then incubated at 37° C. under ambient (20% pO2) or various oxygenated conditions (5%, 1%, or 0.1% pO2) with 5% CO2. Oxygenated conditions were maintained using a hypoxia chamber (ProOx C21, Biospherix) in a cell culture incubator. […] PBS (1 mL) was then added to each well and cells were scraped off with a cell scraper. The cell suspensions were placed into microcentrifuge tubes and pelleted by spinning at 10,000×g for 5 minutes at 4° C. The supernatant was then removed, and the pellet was dissolved with an SDS solution (100 μL, 1% SDS in 50 mM Tris buffer, pH 8.0). The protein concentration was determined by BCA assay following the manufacturer's protocol (Pierce). The sample was then labeled using the copper-catalyzed azide-alkyne cycloaddition (CuAAC). […] The dried pellet was then resuspended in an SDS solution (50 μL, 1% SDS in 50 mM Tris, pH 8.0), and the protein concentration was determined by BCA assay. […] In-gel fluorescence was visualized by a laser scanner (Typhoon™ FLA 9500, GE) and quantified using ImageJ software. […] Detection was mediated by an anti-rabbit IR680-dye conjugated secondary antibody (LI-COR Biosciences, 925-68071) and imaged using a fluorescence scanner (Odyssey CLx, LI-COR Biosciences).

| SMILES | labeling of cells under normoxia and hypoxia (Bx-PC3 cells, 10 μM, 12 h, in-gel fluorescence after CuAAC with TAMRA-azide) | labeling in cell culture (oxygen dependence) (BxPC-3, 48 h) | oxygen tension of probe activation (BxPC-3, over 48 h, CuAAC with TAMRA-azide) |
| --- | --- | --- | --- |
| C#CCN(CCCCCC(F)/C=C/[N+]([O-])(CC)CC)C(=O)c1ccc(C2=c3cc4c(cc3[Si](C)(C)c3cc5c(cc32)CCN5C)=[N+](C)CC4)c(C)c1 (stereo not drawn) [probe 42, Si700-enamine N-oxide] | labeled Bx-PC3 cells in a hypoxia-dependent manner | – | – |
| C#CCCCCC(F)/C=C/[N+]([O-])(CC)CC (stereo not drawn) [probe 39, (E)-N,N-diethyl-3-fluoronon-1-en-8-yn-1-amine oxide] | – | oxygen-dependent labeling | ca. 1 % pO2 |
